The source of these data is patent US20040058880A1, “Aminoglycoside antibiotics as novel anti-infective agents” (priority 2002, published 2004).

The MIC is the lowest concentration found to suppress growth. A lower MIC goes with a more susceptible organism.

Values after ≈ are worked out from the molar mass of the structure shown.

Common to all, as to assay: In vitro antibacterial MIC, 96-well broth assay
For assay [1], the system named is S. aureus ATCC 33591 (MRSA). In kind it is cell-based, Staphylococcus aureus. As to conditions: growth by A595 after 24 h, 10^5-10^6 CFU/well; for MIC: Staphylococcus aureus. The method, then:
(§1) In Vitro Antibacterial Activity Determination of Minimum Inhibitory Concentrations (MICs).
(§2) The assays are carried out in 96-well flat-bottom plates. The bacterial suspension from an overnight culture grown in appropriate medium is added to a solution of test compound in water. Final bacterial inoculums are approximately 10^5-10^6 CFU/well. The percent growth of bacteria in test wells relative to that observed for a well containing no compound is determined by measuring absorbance at 595 nm (A595) after 24 h. The MIC (μg/mL) is determined as a range of single compound where the complete inhibition of growth is observed at the higher concentration and cells are viable at the lower concentrations. Tobramycin is used as an antibiotic-positive control in each screening assay for Pseudomonas aeruginosa, Acinetobacter species, Streptococci viridans, Proteus species, Hemophilus influenzae, Citrobacter species, Serratia marcescens, Staphylococcus aureus, Streptococcus pyogenes, Escherichia coli, Enterobacter species, Enterococcus faecalis, Enterococcus faecium Klebsiella pneumoniae and Providencia stuartii.

In assay [2] the test system is S. aureus ATCC 29213 (MSSA). Format: cell-based, Staphylococcus aureus. Conditions: growth by A595 after 24 h, 10^5-10^6 CFU/well; for MIC: Staphylococcus aureus. How it is done:
as §1, §2

Assay [3] has as its system E. coli ATCC 25922. Format: cell-based, Escherichia coli. Conditions: growth by A595 after 24 h, 10^5-10^6 CFU/well; for MIC: Escherichia coli, ATCC25922. The method, then:
as §1, §2

For assay [4], the system named is E. faecalis ATCC 29212. Format: cell-based, Enterococcus faecalis. Conditions: growth by A595 after 24 h, 10^5-10^6 CFU/well; for MIC: Enterococcus faecalis, ATCC29212. The method, then: as §1, §2
Assay [5] concerns P. aeruginosa PAO-1. In kind it is cell-based, Pseudomonas aeruginosa. As to conditions: growth by A595 after 24 h, 10^5-10^6 CFU/well; for MIC: Pseudomonas aeruginosa, PAO1. How it is done:
as §1, §2

The subject of assay [6] is P. aeruginosa ATCC 27853. Format: cell-based, Pseudomonas aeruginosa. Conditions: growth by A595 after 24 h, 10^5-10^6 CFU/well; for MIC: Pseudomonas aeruginosa, ATCC27853. How it is done: as §1, §2
The test system of assay [7] is P. aeruginosa ATCC 35151. Format: cell-based, Pseudomonas aeruginosa. Conditions: growth by A595 after 24 h, 10^5-10^6 CFU/well; for MIC: Pseudomonas aeruginosa, ATCC35151. How it is done:
as §1, §2

Regarding “4-(2,6-diamino-2,3,6-dideoxy-α-D-glucopyranosyl)-6-(2-amino-2-deoxy-4-amino-4-deoxy-α-D-glucopyranosyl)-2-deoxystreptamine [Compound 3c]”, in assay [1], the “MIC S. aureus ATCC 33591 (MRSA)” value is over 64 µg/mL. In addition, the “MIC S. aureus ATCC 29213 (MSSA)” value in assay [2] worked out at 1 µg/mL. The “MIC E. coli ATCC 25922” value in assay [3] was found to be 2 µg/mL. Moreover, in assay [4], the “MIC E. faecalis ATCC 29212” value was found to be 32 µg/mL. For the same compound, in assay [5], the “MIC P. aeruginosa PAO-1” value came out at 1 µg/mL. Moreover, the “MIC P. aeruginosa ATCC 27853” value in assay [6] amounted to 2 µg/mL. The “MIC P. aeruginosa ATCC 35151” value in assay [7] amounted to 1 µg/mL.
In the case of “4-(2,6-diamino-2,3,6-dideoxy-α-D-glucopyranosyl)-6-(4-amino-4-deoxy-1-α-D-glucopyranosyl)-2-deoxystreptamine [Compound 3b]”, the “MIC S. aureus ATCC 33591 (MRSA)” value in assay [1] was over 64 µg/mL. Moreover, in assay [2], the “MIC S. aureus ATCC 29213 (MSSA)” value worked out at 32 µg/mL. Also, the “MIC E. coli ATCC 25922” value in assay [3] was determined as 32 µg/mL. Further, in assay [4], the “MIC E. faecalis ATCC 29212” value is over 64 µg/mL. The “MIC P. aeruginosa PAO-1” value in assay [5] was 8 µg/mL. For the same compound, the “MIC P. aeruginosa ATCC 27853” value in assay [6] worked out at 16 µg/mL. Besides, the “MIC P. aeruginosa ATCC 35151” value in assay [7] was 16 µg/mL.
For the compound `NC[C@H]1O[C@H](O[C@H]2[C@H](O)[C@@H](O[C@H]3O[C@H](CO)[C@@H](O)[C@H](O)[C@H]3N)[C@H](N)C[C@@H]2N)[C@H](N)C[C@@H]1O` [Compound 3a, 4-(2,6-diamino-2,3,6-dideoxy-α-D-glucopyranosyl)-6-(2-amino-2-deoxy-1-α-D-glucopyranosyl)-2-deoxystreptamine], the minimal inhibitory concentration (MIC) in assay [1] was over 64 µg/mL; in assay [2], 1 µg/mL (≈ 2.14 µM); in assay [3], 2 µg/mL (≈ 4.28 µM); in assay [4], 16 µg/mL (≈ 34.2 µM); in assay [5], 0.5 µg/mL (≈ 1.07 µM); in assay [6], 1 µg/mL (≈ 2.14 µM). This compound yielded a minimal inhibitory concentration (MIC) in assay [7] of 1 µg/mL (≈ 2.14 µM).
Take `NCC1OC(OC2C(N)CC(N)C(OC3OC(CO)C(O)C(OC4OC(CO)C(O)C(O)C4N)C3N)C2O)C(N)CC1O` (stereo not drawn) [Compound 3d, 5-Amino-6-{3-amino-2-[4,6-diamino-3-(3-amino-6-aminomethyl-5-hydroxy-tetrahydro-pyran-2-yloxy)-2-hydroxy-cyclohexyloxy]-5-hydroxy-6-hydroxymethyl-tetrahydro-pyran-4-yloxy}-2-hydroxymethyl-tetrahydro-pyran-3,4-diol]: the MIC in assay [1] is over 64 µg/mL; in assay [2], 16 µg/mL (≈ 25.5 µM); in assay [3] it was 32 µg/mL (≈ 50.9 µM); in assay [4], over 64 µg/mL; in assay [5], 32 µg/mL (≈ 50.9 µM); in assay [6], 64 µg/mL (≈ 102 µM). In assay [7], the MIC came out at 16 µg/mL (≈ 25.5 µM).
Take `N=C(N)NC[C@H]1O[C@H](O[C@H]2[C@H](O)[C@@H](O[C@H]3O[C@H](CO)[C@@H](O)[C@H](O)[C@H]3N)[C@H](N)C[C@@H]2N)[C@H](N)C[C@@H]1O` [Compound 4a, 4-(2-amino-6-guanidinyl-2,3,6-dideoxy-α-D-glucopyranosyl)-6-(2-amino-2-deoxy-1-α-D-glucopyranosyl)-2-deoxystreptamine]: the MIC in assay [1] was over 64 µg/mL; in assay [2], 64 µg/mL (≈ 126 µM); in assay [3], 64 µg/mL (≈ 126 µM); in assay [4] it was over 64 µg/mL; in assay [5] it was 64 µg/mL (≈ 126 µM); in assay [6] it was over 64 µg/mL. In assay [7], this compound registered an MIC of over 64 µg/mL.
Take `NC[C@H]1O[C@H](O[C@H]2[C@H](O)[C@@H](O[C@H]3O[C@H](CNC4CC4)[C@@H](O)[C@H](N)[C@H]3O)[C@H](N)C[C@@H]2N)[C@H](N)C[C@@H]1O` [Compound 9a]: the MIC is 8 µg/mL (≈ 15.8 µM) in assay [1]; 8 µg/mL (≈ 15.8 µM) in assay [2]; 32 µg/mL (≈ 63.2 µM) in assay [3]; over 64 µg/mL in assay [4]; 32 µg/mL (≈ 63.2 µM) in assay [5]; 64 µg/mL (≈ 126 µM) in assay [6]. This compound also registered a minimal inhibitory concentration (MIC) in assay [7] of 32 µg/mL (≈ 63.2 µM).
Take `NC[C@H]1O[C@H](O[C@H]2[C@H](O)[C@@H](OCC(O)CNCCCCNCC(O)CO[C@@H]3[C@@H](O)[C@H](O[C@H]4O[C@H](CN)[C@@H](O)C[C@H]4N)[C@@H](N)C[C@H]3N)[C@H](N)C[C@@H]2N)[C@H](N)C[C@@H]1O` (stereo partly drawn) [Compound 13a]: the MIC was 16 µg/mL (≈ 19.7 µM) in assay [1]; 0.5 µg/mL (≈ 0.615 µM) in assay [2]; 4 µg/mL (≈ 4.92 µM) in assay [3]; 32 µg/mL (≈ 39.4 µM) in assay [4]; 2 µg/mL (≈ 2.46 µM) in assay [5]; 2 µg/mL (≈ 2.46 µM) in assay [6]. In addition, the MIC in assay [7] is 4 µg/mL (≈ 4.92 µM).
For `NCCCCNCC(O)CO[C@@H]1[C@@H](O)[C@H](O[C@H]2O[C@H](CN)[C@@H](O)C[C@H]2N)[C@@H](N)C[C@H]1N` (stereo partly drawn) [Compound 14a], the MIC is over 64 µg/mL in assay [1]; 8 µg/mL (≈ 17.8 µM) in assay [2]; 16 µg/mL (≈ 35.5 µM) in assay [3]; over 64 µg/mL in assay [4]; 16 µg/mL (≈ 35.5 µM) in assay [5]; 32 µg/mL (≈ 71 µM) in assay [6]. This compound displayed an MIC in assay [7] of 16 µg/mL (≈ 35.5 µM).
For the compound `NC[C@H]1O[C@H](O[C@H]2[C@H](O)[C@@H](OCCCNCCCCNCCCO[C@@H]3[C@@H](O)[C@H](O[C@H]4O[C@H](CN)[C@@H](O)C[C@H]4N)[C@@H](N)C[C@H]3N)[C@H](N)C[C@@H]2N)[C@H](N)C[C@@H]1O` [Compound 18a], the minimum inhibitory concentration (MIC) in assay [1] is 32 µg/mL (≈ 41 µM); in assay [2] it was 4 µg/mL (≈ 5.12 µM); in assay [3] it was 16 µg/mL (≈ 20.5 µM); in assay [4], over 64 µg/mL; in assay [5], 8 µg/mL (≈ 10.2 µM); in assay [6], 16 µg/mL (≈ 20.5 µM). In assay [7], this compound displayed an MIC of 32 µg/mL (≈ 41 µM).
For the compound `NCCCCNCCCO[C@@H]1[C@@H](O)[C@H](O[C@H]2O[C@H](CN)[C@@H](O)C[C@H]2N)[C@@H](N)C[C@H]1N` [Compound 19a], the minimal inhibitory concentration (MIC) in assay [1], in assay [2], in assay [3], in assay [4], in assay [5] and in assay [6] was over 32 µg/mL each time. This compound showed a minimum inhibitory concentration (MIC) in assay [7] of over 32 µg/mL.
Regarding `NC[C@H]1O[C@H](O[C@H]2[C@H](OCC(O)CNCCCCNCC(O)CO[C@@H]3[C@@H](O)[C@H](N)C[C@H](N)[C@H]3O[C@H]3O[C@H](CN)[C@@H](O)C[C@H]3N)[C@@H](O)[C@H](N)C[C@@H]2N)[C@H](N)C[C@@H]1O` (stereo partly drawn) [Compound 27a], the minimal inhibitory concentration (MIC) is 16 µg/mL (≈ 19.7 µM) in assay [1]; 2 µg/mL (≈ 2.46 µM) in assay [2]; 16 µg/mL (≈ 19.7 µM) in assay [3]; 32 µg/mL (≈ 39.4 µM) in assay [4]; 4 µg/mL (≈ 4.92 µM) in assay [5]; 4 µg/mL (≈ 4.92 µM) in assay [6]. This compound registered a minimal inhibitory concentration (MIC) in assay [7] of 8 µg/mL (≈ 9.84 µM).
Turning to `NC[C@H]1O[C@H](O[C@H]2[C@H](O)[C@@H](O[C@H]3O[C@H](CO)[C@@H](O)[C@H](N)[C@H]3O)[C@H](N)C[C@@H]2N)[C@H](N)C[C@@H]1O` [Tobramycin, reference compound], the MIC in assay [1] was over 64 µg/mL; in assay [2] it was 0.5 µg/mL (≈ 1.07 µM); in assay [3] it was 1 µg/mL (≈ 2.14 µM); in assay [4] it was 16 µg/mL (≈ 34.2 µM); in assay [5], 0.25 µg/mL (≈ 0.535 µM); in assay [6] it was 0.5 µg/mL (≈ 1.07 µM). The lowest concentration to inhibit growth in assay [7] (MIC) was 0.5 µg/mL (≈ 1.07 µM).
